Test results as given in US20120309750A1, “5-MEMBERED HETEROCYCLE DERIVATIVES AND MANUFACTURING PROCESS THEREOF” (ILDONG PHARM CO., LTD., priority 2010, published 2012).

Columns and labels:
[1] = target: yeast HSP90 (Saccharomyces cerevisiae, UniProt P02829); test: Hsp90 ATPase assay (malachite green); format: biochemical
Experimental: (§1) For present invention, the ATPase activity of yeast HSP90 was measured using malachite green assay. Formula I compounds for primary antitumoral activity were treated in human colorectal cancer cells (HCT116) showing increased expression levels of HSP90 client protein and cotoxicity IC50 values was measured as a result.

[2] = tested on: human colorectal cancer cells (HCT116); test: Growth inhibition assay (cytotoxicity) in HCT116; format: cell-based; conditions: HCT-116
Experimental: as §1

[3] = tested on: A2780 Human ovarian cancer cells; test: In vivo antitumor efficacy, A2780 subcutaneous xenograft; conditions: 200 mg/kg po qdx5, 2 weeks, A2780 xenograft in female Balb/c nude mice
Experimental: A2780 Human ovarian cancer cells were established as subcutaneous xenografts by injection of 8×10^6 cells into the flanks of adult female Balb/c nude mice. Mice with established tumors (50-200 mm^3) were selected for study (n=3-6/treatment group). The test compounds were formulated in ethanol-PEG400-DW and administered orally (po) at a dose of 200 mg/kg. The vehicle alone was administered to control groups. Animals were dosed 5 days per week (Monday through Friday) for 2 consecutive weeks. Animals were weighed and tumor size was determined twice weekly by caliper measurements, and tumor volumes were calculated (volume=[l×w^2]/2(mm^3), where l and w refer to the larger and smaller dimensions collected at each measurement). The mean tumor volumes of each group were calculated. The change in mean treated tumor volume was divided by the change in mean control tumor volume, multiplied by 100 and subtracted from 100% to give the tumor growth inhibition for each group.

[4] = Mouse pharmacokinetics of prodrug after oral gavage; format: in vivo, Balb/c male mice; conditions: single PO dose 100 mg/kg
Experimental: Pharmacokinetics test was carried out in order to confirm the change from invented prodrugs to parent compounds in vivo. Balb/c male mice are dosed with a prodrug by oral gavages. A single administration of a prodrug is given and a dose volume of 10 mL/kg is used for PO doses.
Blood samples are collected in lithium heparin coated tubes at 10, 20, 30, 60, 120 min. Plasma is isolated by centrifugation and frozen before analysis. Plasma samples are prepared by liquid-liquid extraction with Ethyl acetate containing internal standard. Quantification is by using a LC-MS/MS method specific to the selected compound. Animals that had been dosed the selected compound were analyzed for prodrug and the parent compound. Pharmacokinetics parameters are calculated using WinNonLinnon compartmental analysis software.

yeast HSP90, sequence (P02829 whole entry): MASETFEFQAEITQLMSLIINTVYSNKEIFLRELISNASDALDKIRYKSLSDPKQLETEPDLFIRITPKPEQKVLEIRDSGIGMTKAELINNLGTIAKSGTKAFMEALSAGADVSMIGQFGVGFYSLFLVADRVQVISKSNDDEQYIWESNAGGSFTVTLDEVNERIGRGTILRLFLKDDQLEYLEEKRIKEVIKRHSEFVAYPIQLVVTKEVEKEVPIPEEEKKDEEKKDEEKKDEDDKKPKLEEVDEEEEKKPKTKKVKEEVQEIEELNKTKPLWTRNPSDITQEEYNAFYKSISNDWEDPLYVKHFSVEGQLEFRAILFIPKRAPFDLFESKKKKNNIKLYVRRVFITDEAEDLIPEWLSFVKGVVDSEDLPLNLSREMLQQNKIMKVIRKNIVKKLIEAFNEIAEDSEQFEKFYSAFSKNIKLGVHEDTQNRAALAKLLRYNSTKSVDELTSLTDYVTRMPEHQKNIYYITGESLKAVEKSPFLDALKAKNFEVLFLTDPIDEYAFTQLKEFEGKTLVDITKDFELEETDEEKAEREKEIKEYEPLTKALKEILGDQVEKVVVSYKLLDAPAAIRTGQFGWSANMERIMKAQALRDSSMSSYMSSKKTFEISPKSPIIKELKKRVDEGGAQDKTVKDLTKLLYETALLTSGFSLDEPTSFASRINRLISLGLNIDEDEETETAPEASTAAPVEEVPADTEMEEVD

IC50 [1] [nM] | exposure of the active pharmaceutical agent (I-97) relative to the starting dose [4] | Structure (SMILES) | IC50 [2] [nM] | % TGI [3] [%]
< 500 | – | CCNC(=O)c1noc(-c2cc(C(C)C)c(O)cc2O)c1-c1noc(C)n1 [Compound I-60, 5-(2,4-Dihydroxy-5-isopropylphenyl)-N-ethyl-4-(5-methyl-1,2,4-oxadiazol-3-yl) isoxazole-3-carboxamide] | < 500 | 50
< 500 | – | CCNC(=O)c1noc(-c2cc(C(C)C)c(O)cc2O)c1-c1cnn(C)c1 [Compound I-102, 5-(2,4-Dihydroxy-5-isopropylphenyl)-N-ethyl-4-(1-methyl-1H-pyrazol-4-yl)isoxazole-3-carboxamide] | < 500 | –
< 500 | – | CCNC(=O)c1noc(-c2cc(C(C)C)c(O)cc2O)c1-c1cn[nH]c1 [Compound I-103, 5-(2,4-Dihydroxy-5-isopropylphenyl)-N-ethyl-4-(1H-pyrazol-4-yl)isoxazole-3-carboxamide] | < 500 | –
500 to 1000 | – | CCNC(=O)c1noc(-c2cc(C(C)C)c(O)cc2O)c1-c1cnn(CC)c1 [Compound I-104, 5-(2,4-Dihydroxy-5-isopropylphenyl)-N-ethyl-4-(1-ethyl-1H-pyrazol-4-yl)isoxazole-3-carboxamide] | < 500 | –
500 to 1000 | – | CCNC(=O)c1noc(-c2cc(C(C)C)c(O)cc2O)c1-c1cnn(C(C)C)c1 [Compound I-105, 5-(2,4-Dihydroxy-5-isopropylphenyl)-N-ethyl-4-(1-isopropyl-1H-pyrazol-4-yl)isoxazole-3-carboxamide] | < 500 | –
– | optimal exposure | CCNC(=O)c1noc(-c2cc(C(C)C)c(OC(=O)[C@@H]3CCCN3C(=O)OC(C)(C)C)cc2OC(=O)C2CCCN2C(=O)OC(C)(C)C)c1-c1ccn(C)n1 (stereo partly drawn) [II-8, (2S,2′S)-1-tert-Butyl^′2,2-4-(3-(ethylcarbamoyl)-4-(1-methyl-1H-pyrazol-3-yl)isoxazol-5-yl)-6-isopropyl-1,3-phenylene dipyrrolidine-1,2-dicarboxylate] | – | –
